# Experimental data as given in ChEMBL document CHEMBL5528067, “From Synergy to Monotherapy: Discovery of Novel 2,4,6-Trisubstituted Triazine Hydrazone Derivatives with Potent Antifungal Potency In Vitro and In Vivo” (J Med Chem, 2024).
# Calls of active or inactive are those of the source. The calls are words filed in the database; no cut-off is given here.
# Experiments:
# Candida albicans [1] = experiment: Effect on of BRG1 gene expression in Candida albicans SC5314 at 4 to 8 microg/ml by real time RT-PCR analysis; type: functional; settings: dose 4-8 µg/ml
# Candida albicans [2] = experiment: In vivo antifungal activity against Candida albicans SC5314 infected in po dosed C57BL/6J mouse assessed as reduction in fungal burden in kidney treated once a day for 2 days; type: functional, organism-based; settings: dose 5-10 mg/kg, time 2.0 day
# Candida albicans [3] = experiment: Suppression of ALS3 gene expression in Candida albicans SC5314 at 4 to 8 microg/ml by real time RT-PCR analysis; type: functional; settings: dose 4-8 µg/ml
# Candida albicans [4] = experiment: Antifungal activity against FCZ-resistant Candida albicans strain 904 assessed as growth inhibition measured after 48 hrs incubation by CLSI based micro-dilution broth method; type: functional
# Candida albicans [5] = experiment: Upregulation of SAP6 gene expression in Candida albicans SC5314 assessed as fold increase at 4 microg/ml by real time RT-PCR analysis relative to control; type: functional; settings: dose 4.0 µg/ml
# Candida albicans [6] = experiment: Suppression of BCR1 gene expression in Candida albicans SC5314 assessed as fold increase at 8 microg/ml by real time RT-PCR analysis relative to control; type: functional; settings: dose 8.0 µg/ml
# Candida albicans [7] = experiment: Effect on ECE1 gene expression in Candida albicans SC5314 at 4 to 8 microg/ml by real time RT-PCR analysis; type: functional; settings: dose 4-8 µg/ml
# Candida albicans [8] = experiment: Antifungal activity against FCZ-resistant Candida albicans strain 901 assessed as growth inhibition in presence of fluconazole measured after 48 hrs incubation by CLSI based micro-dilution broth method; type: functional
# Nakaseomyces glabratus = experiment: Antifungal activity against Candida glabrata 537 assessed as growth inhibition measured after 48 hrs incubation by CLSI based micro-dilution broth method; type: functional
# [9] = Half life in Sprague-Dawley rat at 2 mg/kg, iv measured upto 24 hrs by LC-MS/MS analysis; type: ADME, organism-based; settings: in vivo
# [Candida] auris [10] = Antifungal activity against FCZ-resistant Candida auris 918 assessed as growth inhibition measured after 48 hrs incubation by CLSI based micro-dilution broth method; type: functional; settings: Candidozyma auris
# [Candida] auris [11] = Antifungal activity against FCZ-resistant Candida auris 919 assessed as growth inhibition measured after 48 hrs incubation by CLSI based micro-dilution broth method; type: functional; settings: Candidozyma auris
# Candida albicans [12] = experiment: Induction of cell wall component change in Candida albicans SC5314 assessed as irregular and shrunken cell membrane chitin structure at 4 microg/ml measured after 12 hrs by transmission electron microscopy; type: functional, organism-based; settings: dose 4.0 µg/ml
# Candida albicans [13] = experiment: Induction of cell wall component change in Candida albicans SC5314 assessed as change in chitin content by measuring […] fluorescence intensity at 4 microg/ml measured after 12 hrs by confocal laser-scanning microscopy; type: functional, organism-based; settings: dose 4.0 µg/ml
# Candida albicans [14] = experiment: Suppression of EFG1 gene expression in Candida albicans SC5314 assessed as fold increase at 8 microg/ml by real time RT-PCR analysis relative to control; type: functional; settings: dose 8.0 µg/ml
# Candida tropicalis = experiment: Antifungal activity against Candida tropicalis 8915 assessed as growth inhibition measured after 48 hrs incubation by CLSI based micro-dilution broth method; type: functional
# Candida albicans [15] = experiment: Effect on HWP1 gene expression in Candida albicans SC5314 at 4 to 8 microg/ml by real time RT-PCR analysis; type: functional; settings: dose 4-8 µg/ml
# Candida albicans [16] = experiment: Suppression of SAP6 gene expression in Candida albicans SC5314 assessed as fold increase at 8 microg/ml by real time RT-PCR analysis relative to control; type: functional; settings: dose 8.0 µg/ml
# Candida albicans [17] = experiment: Synergistic antifungal activity against FCZ-resistant Candida albicans strain 901 assessed as fractional inhibitory concentration index measured after 48 hrs in presence of FCZ by CLSI based micro-dilution broth method; type: functional
# Candida albicans [18] = experiment: Induction of cell wall component change in Candida albicans SC5314 assessed as decrease in mannan content by measuring ConA fluorescence intensity at 4 microg/ml measured after 12 hrs by confocal laser-scanning microscopy; type: functional, organism-based; settings: dose 4.0 µg/ml
# Candida albicans [19] = experiment: Upregulation of SAP2 gene expression in Candida albicans SC5314 assessed as fold increase at 4 microg/ml by real time RT-PCR analysis relative to control; type: functional; settings: dose 4.0 µg/ml
# Candida albicans [20] = experiment: Antibiofilm activity against Candida albicans SC5314 assessed as inhibition of biofilm formation at 4 microg/ml incubated for 24 hrs by XTT/menadione reduction assay relative to control; type: functional; design: scale not given: the % may be the effect or the level left; settings: dose 4 µg/ml
# Candida albicans [21] = experiment: Antibiofilm activity against Candida albicans SC5314 assessed as inhibition of biofilm formation at 64 microg/ml incubated for 24 hrs by XTT/menadione reduction assay relative to control; type: functional; design: scale not given: the % may be the effect or the level left; settings: dose 64 µg/ml
# Candida albicans [22] = experiment: Upregulation of EFG1 gene expression in Candida albicans SC5314 assessed as fold increase at 4 microg/ml by real time RT-PCR analysis relative to control; type: functional; settings: dose 4.0 µg/ml
# Candida albicans [23] = experiment: Antifungal activity against FCZ-resistant Candida albicans strain 904 assessed as growth inhibition in presence of fluconazole measured after 48 hrs incubation by CLSI based micro-dilution broth method; type: functional
# Candida albicans [24] = experiment: Antifungal activity against FCZ-resistant Candida albicans strains assessed as growth inhibition in presence of FCZ measured after 48 hrs incubation by CLSI based micro-dilution broth method; type: functional
# Candida albicans [25] = experiment: Synergistic antifungal activity against FCZ-resistant Candida albicans strain 904 assessed as fractional inhibitory concentration index measured after 48 hrs in presence of FCZ by CLSI based micro-dilution broth method; type: functional
# Candida albicans [26] = experiment: Antibiofilm activity against Candida albicans SC5314 assessed as biofilm disruption at 32 microg/ml incubated for 24 hrs by XTT/menadione reduction assay relative to control; type: functional; design: scale not given: the % may be the effect or the level left; settings: dose 32 µg/ml
# Candida albicans [27] = experiment: Antibiofilm activity against Candida albicans SC5314 assessed as inhibition of biofilm formation incubated for 24 hrs by XTT/menadione reduction assay; type: functional, organism-based; settings: dose 1-64 µg/ml
# Candida albicans [28] = experiment: Antifungal activity against FCZ-resistant Candida albicans strain 901 assessed as growth inhibition measured after 48 hrs incubation by CLSI based micro-dilution broth method; type: functional
# Cryptococcus neoformans = experiment: Antifungal activity against FCZ-resistant Cryptococcus neoformans 32609 assessed as growth inhibition at 0.5 to 4 microg/ml measured at 24 hrs incubation by time growth assay; type: functional, organism-based; settings: dose 0.5-4 µg/ml
# Candida albicans [29] = experiment: Antifungal activity against FCZ-resistant Candida albicans SC5314 assessed as reduction in CFU at 0.5 to 2 microg/ml measured at 24 hrs incubation by time kill assay (reference value: 5 log10 CFU/ml); type: functional; settings: dose 0.5-2 µg/ml
# Candida albicans [30] = experiment: Filamentation inhibitory effect in Candida albicans SC5314 assessed as inhibition of hyphal formation using hyphal-inducing RPMI 1640 medium by measuring shorter hyphal at 2 to 8 microg/ml measured after 8 hrs by inverted imaging microscopy; type: functional, organism-based; settings: dose 2-8 µg/ml
# Pichia kudriavzevii = experiment: Antifungal activity against Candida krusei 4996 assessed as growth inhibition measured after 48 hrs incubation by CLSI based micro-dilution broth method; type: functional
# Candida albicans [31] = experiment: Suppression of SAP2 gene expression in Candida albicans SC5314 assessed as fold increase at 8 microg/ml by real time RT-PCR analysis relative to control; type: functional; settings: dose 8.0 µg/ml
# Candida albicans [32] = experiment: Induction of cell wall component change in Candida albicans SC5314 assessed as thinner mannan layer at 4 microg/ml measured after 12 hrs by transmission electron microscopy; type: functional, organism-based; settings: dose 4.0 µg/ml
# Candida albicans [33] = experiment: Effect on of UME6 gene expression in Candida albicans SC5314 at 4 to 8 microg/ml by real time RT-PCR analysis; type: functional; settings: dose 4-8 µg/ml
smiles,measurement,setting,value
O=[N+]([O-])c1ccc(O)c(/C=N/Nc2nc(NCc3ccc(F)cc3)nc(NCc3ccc(F)cc3)n2)c1,Activity,Candida albicans [1],inactive
same,Activity,Candida albicans [2],Dose-Dependent Effect
same,Activity,Candida albicans [3],Active
same,MIC80,Candida albicans [4],1 µg/mL
same,fold change (FC),Candida albicans [5],4.38
same,fold change (FC),Candida albicans [6],1.58
same,Activity,Candida albicans [7],inactive
same,MIC80,Candida albicans [8],0.25 µg/mL
same,MIC80,Nakaseomyces glabratus,0.5 µg/mL
same,half-life,[9],1.28 h
same,MIC80,[Candida] auris [10],2 µg/mL
same,MIC80,[Candida] auris [11],16 µg/mL
same,Activity,Candida albicans [12],Active
same,Activity,Candida albicans [13],Active
same,fold change (FC),Candida albicans [14],1.52
same,MIC80,Candida tropicalis,2 µg/mL
same,Activity,Candida albicans [15],inactive
same,fold change (FC),Candida albicans [16],2.99
same,fractional inhibitory concentration index (FICI),Candida albicans [17],0.25
same,Activity,Candida albicans [18],Active
same,fold change (FC),Candida albicans [19],1.86
same,Activity,Candida albicans [20],40%
same,Activity,Candida albicans [21],70%
same,fold change (FC),Candida albicans [22],2.56
same,MIC80,Candida albicans [23],0.25 µg/mL
same,MIC80,Candida albicans [24],0.5 µg/mL
same,fractional inhibitory concentration index (FICI),Candida albicans [25],0.38
same,Activity,Candida albicans [26],<30%
same,Activity,Candida albicans [27],Dose-Dependent Effect
same,MIC80,Candida albicans [28],2 µg/mL
same,Activity,Cryptococcus neoformans,Active
same,Activity,Candida albicans [29],3.2 log10CFU/ml
same,Activity,Candida albicans [30],Active
same,MIC80,Pichia kudriavzevii,1 µg/mL
same,fold change (FC),Candida albicans [31],1.22
same,Activity,Candida albicans [32],Active
same,Activity,Candida albicans [33],inactive
